Test results reported in US11376216B2, “Periodontal disease therapy” (New York University, priority 2018, dated 2022).

Key:
[1] = tested on: osteoclast culture derived from ficoll processed mouse bone marrow cells; assay: Succinate-stimulated osteoclastogenesis in bone marrow osteoclast cultures (TRAP staining); format: cell-based; settings: 1 mM succinate, in vitro
Method: (§1) (A) “4C” structure with NMR in dimethyl sulfoxide (DMSO). (B) Purity by high-performance liquid chromatography (HPLC). Ficoll processed non-adherent bone marrow cells were seeded at 20,000 per well in 96-well-plate and stimulated with the indicated concentration of cytokines (macrophage-colony stimulating factor (M-CSF), 30 ng ml^−1 from day 1; receptor activator of nuclear factor kappa-B ligand (RANKL), 50 ng ml^−1 from day 3); fresh cytokines were added every other day. (C) No cytotoxicity of 4C to the proliferation of osteoclast (OC) progenitors (without RANKL and M-CSF). (D-E) Representative TRAP staining images and analysis of WT mouse bone marrow in vitro OC cultures treated with 1 mM succinate or control in the presence of SucnR1 antagonist 4C at indicated concentrations. **p<0.01, *** p<0.001 according to Bonferroni post hoc test after ANOVA, N=5.
(§2) The structure of the synthetic antagonist of SucnR1 4C was authenticated using nuclear magnetic resonance spectroscopy (FIG. 2A) with a purity of 98.002% according to high-performance liquid chromatography (FIG. 2B).

pre-osteoclastic cells = assay: Viability/proliferation of osteoclast progenitors (cytotoxicity of 4C); format: cell-based, mouse; settings: at up to 100 μM; without RANKL and M-CSF
Method: as §1, §2

[2] = target: T1, Human Succinate Receptor 1 (Homo sapiens, UniProt Q9BXA5); assay: Human Succinate Receptor 1 AequoScreen cell line calcium signal upon succinate activation; format: cell-based; settings: succinate 500 μM, read-out: inhibition of SucnR1 activation by succinate
T1 sequence (Q9BXA5 1-334): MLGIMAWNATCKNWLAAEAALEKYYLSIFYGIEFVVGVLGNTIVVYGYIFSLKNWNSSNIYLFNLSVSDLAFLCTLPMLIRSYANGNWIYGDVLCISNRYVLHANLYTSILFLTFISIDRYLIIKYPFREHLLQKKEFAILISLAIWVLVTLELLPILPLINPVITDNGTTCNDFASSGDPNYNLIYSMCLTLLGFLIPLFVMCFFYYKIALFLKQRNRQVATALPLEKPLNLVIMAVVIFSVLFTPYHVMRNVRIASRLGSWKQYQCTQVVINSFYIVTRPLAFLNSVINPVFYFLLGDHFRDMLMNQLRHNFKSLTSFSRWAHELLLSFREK
Method: Human Succinate Receptor 1 AequoScreen® Cell Line (PerkinElmer ES-744-A) was used to assess the activity of SUCNR1 upon activation by ligand (succinate 500 μM) in the presence and absence of antagonists. Cells were seeded at 5,000 cells/well for 24 hour before the calcium dye was added. Forty-five minutes later, the antagonists were added at indicated concentrations. Fifteen minutes later, the ligand was added and the fluorescent signal (EX/EM: 485/525) was measured immediately on a plate reader. A) The efficacy of 3 newly synthesized compounds in comparison with 4C at the same concentration. (*p<0.05, **p<0.001 by t-test in comparison to ligand alone post One-Way ANOVA) B) Dose effects of the compound 7a at various concentrations. (*p<0.05, **p<0.001 in comparison to […] by t-test post One-Way ANOVA).
Structure-activity relationship studies were performed using the compounds depicted in FIG. 7. The structure and purity of the compounds were confirmed via HPLC and NMR. At the same concentration of 4C, these antagonists inhibited the activation of SucnR1 by succinate in vitro (FIG. 8A).

C[C@H](NC(=O)Cc1ccc(-c2ccc3cccnc3n2)cc1)c1ccc(-c2ccc(F)c(C(F)(F)F)c2)cc1 [4C]
reduction of succinate stimulation of osteoclastogenesis ([1]; 4C at 0.1 μM): started to reduce the stimulation of succinate | reduction of succinate stimulation of osteoclastogenesis ([1]; 4C at 10 μM): completely erase the simulation of osteoclastogenesis by succinate | inhibitory effect on the viability of pre-osteoclastic cells (pre-osteoclastic cells): no inhibitory effect

CNC(=O)Cc1ccc(-c2ccc3cccnc3n2)cc1 [Cpd-7a]
inhibition at 20 µM [2]: 50%
